Results from BindingDB's records for doi:10.1021/jm9805384 (Agouron Pharmaceuticals, 1999).

Experiment: The EC50 was calculated as the concentration of drug that increased the percentage of formazan production in drug treated, virus infected cells to 50% of that produced by drug free uninfected cells on serotype 2.

Question: For `CCOC(=O)/C=C/[C@H](CCC(N)=O)NC(=O)[C@H](Cc1ccccc1)NC(=O)[C@H](CC(C)C)NC(=O)OCc1ccccc1` [(E)-(S)-4-[(S)-2-((S)-2-Benzyloxycarbonylamino-4-methyl-pentanoylamino)-3-phenyl-propionylamino]-6-carbamoyl-hex-2-enoic acid ethyl ester], which EC50 is on record?
Answer: The EC50 was 1600 nM.

Experiment: Increased percentage of formazan production in drug treated virus infected cells to equal 50% control drug free uninfected cells on serotype 14

Question: For `CCOC(=O)/C=C/[C@H](CN1CCNC1=O)NC(=O)[C@H](Cc1ccccc1)NC(=O)[C@H](CC(C)C)NC(=O)OCc1ccccc1` [(E)-(R)-4-[(S)-2-((S)-2-Benzyloxycarbonylamino-4-methyl-pentanoylamino)-3-phenyl-propionylamino]-5-(2-oxo-imidazolidin-1-yl)-pent-2-enoic acid ethyl ester], which EC50 is on record?
Answer: Its EC50 is 600 nM.

Question: For `CCOC(=O)/C=C/[C@H](C[C@@H]1CCCNC1=O)NC(=O)[C@H](Cc1ccc(F)cc1)NC(=O)[C@@H](NC(=O)c1cc(C)on1)C(C)C` [(E)-(S)-4-((S)-3-(4-Fluoro-phenyl)-2-{(S)-3-methyl-2-[(5-methyl-isoxazole-3-carbonyl)-amino]-butyrylamino}-propionylamino)-5-((S)-2-oxo-piperidin-3-yl)-pent-2-enoic acid ethyl ester], which EC50 is on record?
Answer: The EC50 was 20 nM.

Question: With `CCOC(=O)/C=C/[C@H](C[C@@H]1CCCNC1=O)NC(=O)[C@H](Cc1ccccc1)NC(=O)[C@H](CC(C)C)NC(=O)OCc1ccccc1` [(E)-(S)-4-[(S)-2-((S)-2-Benzyloxycarbonylamino-4-methyl-pentanoylamino)-3-phenyl-propionylamino]-5-((S)-2-oxo-piperidin-3-yl)-pent-2-enoic acid ethyl ester] as the compound, how does the EC50 read?
Answer: The EC50 was 30 nM.

Question: With `CCOC(=O)/C=C/[C@H](CCC(=O)N(C)C)NC(=O)[C@H](Cc1ccccc1)NC(=O)[C@H](CC(C)C)NC(=O)OCc1ccccc1` [(E)-(S)-4-[(S)-2-((S)-2-Benzyloxycarbonylamino-4-methyl-pentanoylamino)-3-phenyl-propionylamino]-6-dimethylcarbamoyl-hex-2-enoic acid ethyl ester] as the compound, how does the EC50 read?
Answer: Its EC50 is 4000 nM.

Question: Which EC50 does the source give for `CCOC(=O)/C=C/[C@H](CCC(=O)NC)NC(=O)[C@H](Cc1ccccc1)NC(=O)[C@H](CC(C)C)NC(=O)OCc1ccccc1` [(E)-(S)-4-[(S)-2-((S)-2-Benzyloxycarbonylamino-4-methyl-pentanoylamino)-3-phenyl-propionylamino]-6-methylcarbamoyl-hex-2-enoic acid ethyl ester] here?
Answer: Its EC50 is 5600 nM.

Question: With `CCOC(=O)/C=C/[C@H](C[C@@H]1CCNC1=O)NC(=O)[C@H](Cc1ccc(F)cc1)NC(=O)[C@@H](NC(=O)c1cc(C)on1)C(C)(C)C` [(E)-(S)-4-[(S)-2-{(S)-3,3-Dimethyl-2-[(5-methyl-isoxazole-3-carbonyl)-amino]-butyrylamino}-3-(4-fluoro-phenyl)-propionylamino]-5-((S)-2-oxo-pyrrolidin-3-yl)-pent-2-enoic acid ethyl ester] as the compound, how does the EC50 read?
Answer: Its EC50 is 10 nM.

Question: Which EC50 does the source give for `CCOC(=O)/C=C/[C@H](C[C@@H]1CCCNC1=O)NC(=O)[C@@H](CC(=O)[C@@H](NC(=O)c1cc(C)on1)C(C)C)Cc1ccc(F)cc1` [(E)-(S)-4-{(2R,5S)-2-(4-Fluoro-benzyl)-6-methyl-5-[(5-methyl-isoxazole-3-carbonyl)-amino]-4-oxo-heptanoylamino}-5-((S)-2-oxo-piperidin-3-yl)-pent-2-enoic acid ethyl ester] here?
Answer: Its EC50 is 1 nM.

Question: With `CCOC(=O)/C=C/[C@H](C[C@@H]1CCNC1=O)NC(=O)[C@H](Cc1ccc(F)cc1)NC(=O)[C@@H](NC(=O)c1cc(C)on1)C(C)C` [AG7088 analogue 2a] as the compound, how does the EC50 read?
Answer: The EC50 was 10 nM.

Question: Which EC50 does the source give for `CCOC(=O)/C=C/[C@H](C[C@@H]1CCNC1=O)NC(=O)[C@H](Cc1ccccc1)NC(=O)[C@@H](NC(=O)OCc1ccccc1)C(C)C` [ethyl (2E,4S)-4-[(2S)-2-[(2S)-2-{[(benzyloxy)carbonyl]amino}-3-methylbutanamido]-3-phenylpropanamido]-5-[(3S)-2-oxopyrrolidin-3-yl]pent-2-enoate] here?
Answer: The EC50 was 30 nM.
